US3945994A, “Novel acid compounds” (Gist-Brocades N.V., priority 1973, dated 1976)
≈ marks a conversion by molar mass, not a printed value. Read-outs that look alike come from different tables or passages of the source.

What was measured:
Assay type in all cases: cell-based
Proteus rettgeri A 821 [1] = details: Providencia rettgeri, A821; agar serial dilution, 24 hours at 37°C
Proteus mirabilis A 1200 = details: A1200, agar serial dilution, 24 hours at 37°C
[2] = tested on: Staphylococcus aureus A 321; details: A321, agar serial dilution, 24 hours at 37°C
[3] = tested on: Klebsiella pneumoniae A 809; details: A809, agar serial dilution, 24 hours at 37°C
Escherichia coli U 20 = details: U20, agar serial dilution, 24 hours at 37°C
[4] = tested on: Bacillus subtilis ATCC 6633; details: ATCC6633, agar serial dilution, 24 hours at 37°C
[5] = tested on: Staphylococcus aureus A 2000; details: A2000, agar serial dilution, 24 hours at 37°C
[6] = tested on: Staphylococcus aureus A 2001; details: A2001, agar serial dilution, 24 hours at 37°C
[7] = tested on: Pseudomonas aeruginosa H 10; details: H10, agar serial dilution, 24 hours at 37°C
[8] = tested on: Diplococcus pneumoniae L 54; details: Streptococcus pneumoniae, L54; agar serial dilution, 24 hours at 37°C
Proteus morganii 2241 = details: Morganella morganii, agar serial dilution, 24 hours at 37°C
Proteus mirabilis H 3 = details: H3, agar serial dilution, 24 hours at 37°C
[9] = tested on: Salmonella typhimurium R 127; details: Salmonella enterica, agar serial dilution, 24 hours at 37°C
[10] = tested on: Streptococcus faecalis L 80; details: Enterococcus faecalis, L80; agar serial dilution, 24 hours at 37°C
[11] = tested on: Staphylococcus aureus A 355'; details: agar serial dilution, 24 hours at 37°C
Salmonella dublin P 43 = details: Salmonella enterica, P43; agar serial dilution, 24 hours at 37°C
[12] = tested on: Pasteurella multocida A 723; details: A723, agar serial dilution, 24 hours at 37°C
[13] = tested on: Pseudomonas aeruginosa 2396; details: agar serial dilution, 24 hours at 37°C
[14] = tested on: Streptococcus haemolyticus A 266; details: A266, agar serial dilution, 24 hours at 37°C
[15] = tested on: Pseudomonas aeruginosa Wyeth A 1058; details: WYETHA1058, agar serial dilution, 24 hours at 37°C
[16] = tested on: Haemophilus influenzae A 1030; assay: micro serial dilution test, MIC; details: A1030, micro serial dilution (between brackets), 30°C or 37°C, about 18 hours
[17] = tested on: Salmonella typhimurium R172; details: Salmonella enterica, agar serial dilution, 24 hours at 37°C
Proteus rettgeri A 821 [18] = assay: micro serial dilution test, MIC; details: Providencia rettgeri, A821; micro serial dilution (between brackets), 30°C or 37°C, about 18 hours
[19] = tested on: Streptococcus haemolyticus A 1088; details: A1088, agar serial dilution, 24 hours at 37°C

Compound | MIC (Proteus rettgeri A 821 [1]) [µg/mL] | MIC (Proteus mirabilis A 1200) [µg/mL] | MIC [2] [µg/mL] | MIC [3] [µg/mL] | MIC (Escherichia coli U 20) [µg/mL] | MIC [4] [µg/mL] | MIC [5] [µg/mL] | MIC [6] [µg/mL] | MIC [7] [µg/mL] | MIC [8] [µg/mL] | MIC (Proteus morganii 2241) [µg/mL] | MIC (Proteus mirabilis H 3) [µg/mL] | MIC [10] [µg/mL] | MIC [11] [µg/mL] | MIC (Salmonella dublin P 43) [µg/mL] | MIC [12] [µg/mL] | MIC [13] [µg/mL] | MIC [14] [µg/mL] | MIC [15] [µg/mL] | MIC [17] [µg/mL] | further results
Cc1noc(NS(=O)(=O)NC(=O)N[C@@H](C(=O)N[C@@H]2C(=O)N3[C@@H]2SC(C)(C)[C@@H]3C(=O)O)c2ccccc2)c1C [XIII, D-6-[α-{3-(3,4-dimethylisoxazol-5-yl-aminosulfonyl)ureido}-benzylcarbonamido]-penicillanic acid] | 3 (≈ 5.29 µM) | 6 (≈ 10.6 µM) | 1 (≈ 1.76 µM) | 100 (≈ 176 µM) | 12.5 (≈ 22.1 µM) | 0.5 (≈ 0.882 µM) | 12.5 (≈ 22.1 µM) | 3 (≈ 5.29 µM) | 100 (≈ 176 µM) | 1.5 (≈ 2.65 µM) | 100 (≈ 176 µM) | 12.5 (≈ 22.1 µM) | 12.5 (≈ 22.1 µM) | 25 (≈ 44.1 µM) | 25 (≈ 44.1 µM) | 0.12 (≈ 0.212 µM) | 50 (≈ 88.2 µM) | 0.12 (≈ 0.212 µM) | 25 (≈ 44.1 µM) |  | MIC [9]: 50 µg/mL (≈ 88.2 µM)
CCOC(=O)NS(=O)(=O)N[C@@H](C(=O)N[C@@H]1C(=O)N2[C@@H]1SC(C)(C)[C@@H]2C(=O)O)c1ccccc1 [XIX, D-6-[α-(ethoxycarbonylaminosulfonylamino)-benzylcarbonamido]-penicillanic acid] | 3 (≈ 5.99 µM) | 25 (≈ 49.9 µM) | 3 (≈ 5.99 µM) | > 100 | 100 (≈ 200 µM) | 1 (≈ 2 µM) | 12.5 (≈ 25 µM) | 6 (≈ 12 µM) | > 100 | 3 (≈ 5.99 µM) | > 100 | 25 (≈ 49.9 µM) | 25 (≈ 49.9 µM) | 50 (≈ 99.9 µM) | 50 (≈ 99.9 µM) | 0.5 (≈ 0.999 µM) | 100 (≈ 200 µM) | 0.25 (≈ 0.499 µM) | 50 (≈ 99.9 µM) |  | MIC [9]: 100 µg/mL (≈ 200 µM)
CC1(C)S[C@@H]2[C@H](NC(=O)[C@H](NC(=O)NS(=O)(=O)O)c3ccccc3)C(=O)N2[C@H]1C(=O)O [XVII, D-6-[α-{3-(sulfo)-ureido}-benzylcarbonamido]-penicillanic acid] | < 0.75 | 3 (≈ 6.35 µM) | 3 (≈ 6.35 µM) | 100 (≈ 212 µM) | 25 (≈ 52.9 µM) | 0.5 (≈ 1.06 µM) | 12.5 (≈ 26.5 µM) | 12.5 (≈ 26.5 µM) | 50 (≈ 106 µM) | 0.25 (≈ 0.529 µM) | 50 (≈ 106 µM) | < 0.75 | 25 (≈ 52.9 µM) | 12.5 (≈ 26.5 µM) | 6 (≈ 12.7 µM) | 0.12 (≈ 0.254 µM) | 25 (≈ 52.9 µM) | 0.12 (≈ 0.254 µM) | 25 (≈ 52.9 µM) |  | MIC [9]: 50 µg/mL (≈ 106 µM)
CC(=NS(=O)(=O)N[C@@H](C(=O)N[C@@H]1C(=O)N2[C@@H]1SC(C)(C)[C@@H]2C(=O)O)c1ccccc1)N(C)C [XXI, D-6-[α-{1-(dimethylamino)-ethylideneamino-sulfonamido}-benzylcarbonamido]-penicillanic acid] |  | 25 (≈ 50.2 µM) | 1.5 (≈ 3.01 µM) | 100 (≈ 201 µM) | 100 (≈ 201 µM) | 0.12 (≈ 0.241 µM) |  |  | > 100 | 0.75 (≈ 1.51 µM) | 25 (≈ 50.2 µM) | 50 (≈ 100 µM) | 3 (≈ 6.03 µM) |  | 25 (≈ 50.2 µM) | 0.75 (≈ 1.51 µM) | 100 (≈ 201 µM) | 0.12 (≈ 0.241 µM) | > 100 | 100 (≈ 201 µM) | MIC [16]: 1.8 µg/mL (≈ 3.62 µM); MIC (Proteus rettgeri A 821 [18]): 0.6 µg/mL (≈ 1.21 µM)
CN1CCCC1=NS(=O)(=O)N[C@@H](C(=O)N[C@@H]1C(=O)N2[C@@H]1SC(C)(C)[C@@H]2C(=O)O)c1ccccc1 [XXIII, D-6-[α-{1-(methylpyrrolidin-2-ylidene)-amino-sulfonamido}-benzylcarbonamido] -penicillanic acid] |  | 12.5 (≈ 24.5 µM) | 1 (≈ 1.96 µM) | > 100 | 100 (≈ 196 µM) | 0.12 (≈ 0.235 µM) | 6 (≈ 11.8 µM) | 3 (≈ 5.89 µM) | > 100 | 0.5 (≈ 0.981 µM) | 50 (≈ 98.1 µM) | 50 (≈ 98.1 µM) | 1.5 (≈ 2.94 µM) | 6 (≈ 11.8 µM) | 50 (≈ 98.1 µM) | 0.5 (≈ 0.981 µM) | > 100 | 0.06 (≈ 0.118 µM) | > 100 | 100 (≈ 196 µM) | MIC [16]: 125 µg/mL (≈ 245 µM); MIC (Proteus rettgeri A 821 [18]): 0.9 µg/mL (≈ 1.77 µM)
CC1(C)S[C@@H]2[C@H](NC(=O)[C@H](NC(=O)NS(=O)(=O)NCc3ccccc3)c3ccccc3)C(=O)N2[C@H]1C(=O)O [XXXII, D-6-[α-{3-(benzylaminosulfonyl)-ureido}-benzylcarbonamido]-penicillanic acid] |  | 3 (≈ 5.34 µM) |  | 12.5 (≈ 22.3 µM) | 6 (≈ 10.7 µM) | 0.5 (≈ 0.89 µM) | 6 (≈ 10.7 µM) | 6 (≈ 10.7 µM) | 100 (≈ 178 µM) | 50 (≈ 89 µM) | 12.5 (≈ 22.3 µM) | 6 (≈ 10.7 µM) | 12.5 (≈ 22.3 µM) | 6 (≈ 10.7 µM) | 6 (≈ 10.7 µM) | 0.5 (≈ 0.89 µM) | 25 (≈ 44.5 µM) |  | 12.5 (≈ 22.3 µM) | 25 (≈ 44.5 µM) | MIC [16]: 23 µg/mL (≈ 41 µM); MIC [19]: 0.25 µg/mL (≈ 0.445 µM); MIC (Proteus rettgeri A 821 [18]): 0.025 µg/mL (≈ 0.0445 µM)
CC1(C)S[C@@H]2C(NC(=O)C(N)c3ccccc3)C(=O)N2[C@H]1C(=O)O (stereo partly drawn) [ampicillin, 6-(α-aminophenylacetamido) penicillanic acid, reference compound] | 3 (≈ 8.59 µM) | 3 (≈ 8.59 µM) | 0.1 (≈ 0.286 µM) | 50 (≈ 143 µM) | 3 (≈ 8.59 µM) | 0.025 (≈ 0.0715 µM) | 1.5 (≈ 4.29 µM) | 0.75 (≈ 2.15 µM) | > 100 | 0.05 (≈ 0.143 µM) |  | 3 (≈ 8.59 µM) |  | 1.5 (≈ 4.29 µM) | 0.8 (≈ 2.29 µM) | 0.2 (≈ 0.572 µM) | 50 (≈ 143 µM) |  | > 100 | 3 (≈ 8.59 µM) | 
CC(=O)OCC1=C(C(=O)O)N2C(=O)[C@@H](NC(=O)CC#N)[C@H]2SC1 [cephacetril, reference compound] | 3 (≈ 8.84 µM) | 12.5 (≈ 36.8 µM) | 0.75 (≈ 2.21 µM) | 6 (≈ 17.7 µM) | 6 (≈ 17.7 µM) | 0.12 (≈ 0.354 µM) | 1.5 (≈ 4.42 µM) | 0.5 (≈ 1.47 µM) | > 100 | 0.5 (≈ 1.47 µM) | > 100 | 12.5 (≈ 36.8 µM) | 12.5 (≈ 36.8 µM) | 1.5 (≈ 4.42 µM) | 12.5 (≈ 36.8 µM) | 6 (≈ 17.7 µM) | > 100 |  | > 100 | 12.5 (≈ 36.8 µM) | MIC [16]: 30 µg/mL (≈ 88.4 µM); MIC [19]: 0.5 µg/mL (≈ 1.47 µM)
CC(=O)OCC1=C(C(=O)O)N2C(=O)[C@@H](NC(=O)[C@H](N)c3ccccc3)[C@H]2SC1 [cephaloglycin, 7-(α-aminophenylacetamido) cephalosporanic acid, reference compound] | 1.5 (≈ 3.7 µM) | 12.5 (≈ 30.8 µM) | 12.5 (≈ 30.8 µM) | 6 (≈ 14.8 µM) | 1.5 (≈ 3.7 µM) | 0.25 (≈ 0.617 µM) | 12.5 (≈ 30.8 µM) | 12.5 (≈ 30.8 µM) | > 100 | 6 (≈ 14.8 µM) | 100 (≈ 247 µM) | 25 (≈ 61.7 µM) | > 100 | 12.5 (≈ 30.8 µM) | 12.5 (≈ 30.8 µM) | 50 (≈ 123 µM) | > 100 |  | > 100 | 12.5 (≈ 30.8 µM) | MIC [16]: 125 µg/mL (≈ 308 µM); MIC [19]: 0.25 µg/mL (≈ 0.617 µM)
Cc1nnc(SCC2=C(C(=O)O)N3C(=O)[C@@H](NC(=O)Cn4cnnn4)[C@H]3SC2)s1 [cephazolin, reference compound] |  | 6 (≈ 13.2 µM) | 0.25 (≈ 0.55 µM) | 1.5 (≈ 3.3 µM) | 1.5 (≈ 3.3 µM) | 0.25 (≈ 0.55 µM) | 0.75 (≈ 1.65 µM) | 0.5 (≈ 1.1 µM) | > 100 | 0.25 (≈ 0.55 µM) | 25 (≈ 55 µM) | 6 (≈ 13.2 µM) | 12.5 (≈ 27.5 µM) | 1.5 (≈ 3.3 µM) | 1.5 (≈ 3.3 µM) | 1.5 (≈ 3.3 µM) | > 100 |  | > 100 | 3 (≈ 6.6 µM) | MIC [19]: 0.12 µg/mL (≈ 0.264 µM); MIC (Proteus rettgeri A 821 [18]): 1.2 µg/mL (≈ 2.64 µM)
